Laboratory results reported in ChEMBL document CHEMBL5634100, “Novel spiro[pyrrolidine-2,3'-quinoline]-2'-one derivatives containing piperazine fragment as potential chitin synthase inhibitors and antifungal agents: Design, synthesis and biological evaluation” (Eur J Med Chem, 2023).
Converted amounts (≈) assume the structure as drawn.

Experiments:
[1] = tested on: Candida albicans; experiment: Antimicrobial activity against Candida albicans ATCC 76615 incubated for 24 hrs in presence of fluconazole by checkerboard method; format: functional
[2] = tested on: Aspergillus fumigatus; experiment: Antimicrobial activity against Aspergillus fumigatus GIMCC 3.19 incubated for 24 hrs in presence of fluconazole by checkerboard method; format: functional
[3] = tested on: Candida albicans; experiment: Additive antimicrobial activity against Candida albicans ATCC 76615 assessed as fractional inhibitory concentration index incubated for 24 hrs in presence of polyoxin B by checkerboard method; format: functional
[4] = tested on: Cryptococcus neoformans; experiment: Antimicrobial activity against Cryptococcus neoformans ATCC 32719 assessed as inhibition of cell wall synthesis in presence of sorbitol; format: functional
[5] = tested on: Candida albicans; experiment: Antimicrobial activity against micafungin-resistant Candida albicans ATCC 76615R incubated for 24 hrs by two fold serial dilution method; format: functional
[6] = tested on: Candida albicans; experiment: Antimicrobial activity against Candida albicans ATCC 76615 incubated for 24 hrs by two fold serial dilution method; format: functional
[7] = tested on: Cryptococcus neoformans; experiment: Antimicrobial activity against Fluconazole-resistant Cryptococcus neoformans ATCC 32719R incubated for 24 hrs by two fold serial dilution method; format: functional
[8] = Inhibition of Candida tropicalis ATCC 750 chitin synthase using UDP-GlcNAc as substrate by TMB based microplate analyzer
[9] = tested on: Cryptococcus neoformans; experiment: Antimicrobial activity against Cryptococcus neoformans ATCC 32719 incubated for 24 hrs in presence of fluconazole by checkerboard method; format: functional
[10] = tested on: Candida albicans; experiment: Synergistic antimicrobial activity against Candida albicans ATCC 76615 assessed as fractional inhibitory concentration index incubated for 24 hrs in presence of fluconazole by checkerboard method; format: functional
[11] = tested on: Cryptococcus neoformans; experiment: Antimicrobial activity against Cryptococcus neoformans ATCC 32719 incubated for 24 hrs by two fold serial dilution method; format: functional
[12] = tested on: Cryptococcus neoformans; experiment: Antimicrobial activity against Cryptococcus neoformans ATCC 32719 incubated for 24 hrs in presence of polyoxin B by checkerboard method; format: functional
[13] = tested on: Aspergillus fumigatus; experiment: Synergistic antimicrobial activity against Aspergillus fumigatus GIMCC 3.19 assessed as fractional inhibitory concentration index incubated for 24 hrs in presence of fluconazole by checkerboard method; format: functional
[14] = tested on: Cryptococcus neoformans; experiment: Additive antimicrobial activity against Cryptococcus neoformans ATCC 32719 assessed as fractional inhibitory concentration index incubated for 24 hrs in presence of fluconazole by checkerboard method; format: functional
[15] = tested on: Aspergillus flavus; experiment: Antimicrobial activity against Aspergillus flavus ATCC 16870 incubated for 24 hrs in presence of fluconazole by checkerboard method; format: functional
[16] = tested on: Aspergillus flavus; experiment: Antimicrobial activity against Aspergillus flavus ATCC 16870 incubated for 24 hrs in presence of polyoxin B by checkerboard method; format: functional
[17] = tested on: Aspergillus fumigatus; experiment: Antimicrobial activity against Fluconazole-resistant Aspergillus fumigatus GIMCC 3.19R incubated for 24 hrs by two fold serial dilution method; format: functional
[18] = tested on: Cryptococcus neoformans; experiment: Additive antimicrobial activity against Cryptococcus neoformans ATCC 32719 assessed as fractional inhibitory concentration index incubated for 24 hrs in presence of polyoxin B by checkerboard method; format: functional
[19] = tested on: Candida albicans; experiment: Antimicrobial activity against Candida albicans ATCC 76615 incubated for 24 hrs in presence of polyoxin B by checkerboard method; format: functional
[20] = tested on: Candida tropicalis; experiment: Inhibition of Candida tropicalis ATCC 750 chitin synthase using UDP-GlcNAc as substrate at 300 ug/ml by TMB based microplate analyzer relative to control; details: dose 300.0 µg/ml
[21] = tested on: Aspergillus fumigatus; experiment: Antimicrobial activity against Aspergillus fumigatus GIMCC 3.19 incubated for 24 hrs in presence of polyoxin B by checkerboard method; format: functional
[22] = tested on: Candida albicans; experiment: Antimicrobial activity against Candida albicans ATCC 76615 assessed as inhibition of cell wall synthesis in presence of sorbitol; format: functional
[23] = tested on: Aspergillus flavus; experiment: Antimicrobial activity against Fluconazole-resistant Aspergillus flavus ATCC 16870R incubated for 24 hrs by two fold serial dilution method; format: functional
[24] = tested on: Aspergillus fumigatus; experiment: Antimicrobial activity against Aspergillus fumigatus GIMCC 3.19 incubated for 24 hrs by two fold serial dilution method; format: functional
[25] = tested on: Aspergillus flavus; experiment: Antimicrobial activity against Aspergillus flavus ATCC 16870 assessed as inhibition of cell wall synthesis in presence of sorbitol; format: functional
[26] = tested on: Aspergillus flavus; experiment: Additive antimicrobial activity against Aspergillus flavus ATCC 16870 assessed as fractional inhibitory concentration index incubated for 24 hrs in presence of fluconazole by checkerboard method; format: functional
[27] = tested on: Aspergillus fumigatus; experiment: Synergistic antimicrobial activity against Aspergillus fumigatus GIMCC 3.19 assessed as fractional inhibitory concentration index incubated for 24 hrs in presence of polyoxin B by checkerboard method; format: functional
[28] = tested on: Candida albicans; experiment: Antimicrobial activity against fluconazole-resistant Candida albicans ATCC 76615R incubated for 24 hrs by two fold serial dilution method; format: functional
[29] = tested on: Aspergillus fumigatus; experiment: Antimicrobial activity against Aspergillus fumigatus GIMCC 3.19 assessed as inhibition of cell wall synthesis in presence of sorbitol; format: functional
[30] = tested on: Aspergillus flavus; experiment: Antimicrobial activity against Aspergillus flavus ATCC 16870 incubated for 24 hrs by two fold serial dilution method; format: functional
[31] = tested on: Aspergillus flavus; experiment: Additive antimicrobial activity against Aspergillus flavus ATCC 16870 assessed as fractional inhibitory concentration index incubated for 24 hrs in presence of polyoxin B by checkerboard method; format: functional
[32] = tested on: Aspergillus fumigatus; experiment: Additive antimicrobial activity against Aspergillus fumigatus GIMCC 3.19 assessed as fractional inhibitory concentration index incubated for 24 hrs in presence of fluconazole by checkerboard method; format: functional
[33] = tested on: Cryptococcus neoformans; experiment: Synergistic antimicrobial activity against Cryptococcus neoformans ATCC 32719 assessed as fractional inhibitory concentration index incubated for 24 hrs in presence of polyoxin B by checkerboard method; format: functional
[34] = tested on: Aspergillus fumigatus; experiment: Additive antimicrobial activity against Aspergillus fumigatus GIMCC 3.19 assessed as fractional inhibitory concentration index incubated for 24 hrs in presence of polyoxin B by checkerboard method; format: functional
[35] = tested on: Cryptococcus neoformans; experiment: Synergistic antimicrobial activity against Cryptococcus neoformans ATCC 32719 assessed as fractional inhibitory concentration index incubated for 24 hrs in presence of fluconazole by checkerboard method; format: functional
[36] = tested on: Aspergillus flavus; experiment: Synergistic antimicrobial activity against Aspergillus flavus ATCC 16870 assessed as fractional inhibitory concentration index incubated for 24 hrs in presence of fluconazole by checkerboard method; format: functional
[37] = tested on: Candida albicans; experiment: Synergistic antimicrobial activity against Candida albicans ATCC 76615 assessed as fractional inhibitory concentration index incubated for 24 hrs in presence of polyoxin B by checkerboard method; format: functional

SMILES: O=C(c1cccc(F)c1)N1CCN(CC(=O)N2CCCC23Cc2ccccc2NC3=O)CC1 (configuration not stated)
- MIC [1]: 1 µg/mL
- MIC [2]: 1 µg/mL
- fractional inhibitory concentration index (FICI) [3]: 1.063
- MIC [4]: 64 µg/mL
- MIC [5]: 128 µg/mL (≈ 284 µM)
- MIC [6]: 1 µg/mL (≈ 2.22 µM)
- MIC [7]: 32 µg/mL (≈ 71 µM)
- IC50 [8]: 140 µM
- MIC [9]: 2 µg/mL
- fractional inhibitory concentration index (FICI) [10]: 0.75
- MIC [11]: 8 µg/mL (≈ 17.8 µM)
- MIC [12]: 2 µg/mL
- fractional inhibitory concentration index (FICI) [13]: 0.5
- fractional inhibitory concentration index (FICI) [14]: 1.25
- MIC [15]: 2 µg/mL
- MIC [16]: 2 µg/mL
- MIC [17]: 32 µg/mL (≈ 71 µM)
- fractional inhibitory concentration index (FICI) [18]: 1.125
- MIC [19]: 0.5 µg/mL
- inhibition [20]: 76.8%
- MIC [21]: 4 µg/mL
- MIC [22]: 64 µg/mL
- MIC [23]: 32 µg/mL (≈ 71 µM)
- MIC [24]: 1 µg/mL (≈ 2.22 µM)
- MIC [25]: 64 µg/mL
- fractional inhibitory concentration index (FICI) [26]: 1.25
- fractional inhibitory concentration index (FICI) [27]: 0.625
- MIC [28]: 32 µg/mL (≈ 71 µM)
- MIC [29]: 128 µg/mL
- MIC [30]: 4 µg/mL (≈ 8.88 µM)
- fractional inhibitory concentration index (FICI) [31]: 1.25

SMILES: O=C(c1cc([N+](=O)[O-])ccc1Cl)N1CCN(CC(=O)N2CCCC23Cc2ccccc2NC3=O)CC1 (configuration not stated)
- fractional inhibitory concentration index (FICI) [32]: 1.25
- MIC [1]: 2 µg/mL
- MIC [2]: 1 µg/mL
- MIC [4]: 256 µg/mL
- MIC [5]: 32 µg/mL (≈ 62.5 µM)
- MIC [6]: 1 µg/mL (≈ 1.95 µM)
- MIC [7]: 128 µg/mL (≈ 250 µM)
- IC50 [8]: 100 µM
- fractional inhibitory concentration index (FICI) [33]: 0.5
- MIC [9]: 4 µg/mL
- fractional inhibitory concentration index (FICI) [34]: 1.25
- fractional inhibitory concentration index (FICI) [35]: 0.625
- fractional inhibitory concentration index (FICI) [10]: 1
- MIC [11]: 4 µg/mL (≈ 7.81 µM)
- MIC [12]: 4 µg/mL
- MIC [15]: 4 µg/mL
- MIC [16]: 1 µg/mL
- MIC [17]: 32 µg/mL (≈ 62.5 µM)
- MIC [19]: 2 µg/mL
- inhibition [20]: 82.9%
- MIC [21]: 2 µg/mL
- MIC [22]: 32 µg/mL
- MIC [23]: 32 µg/mL (≈ 62.5 µM)
- MIC [24]: 4 µg/mL (≈ 7.81 µM)
- MIC [25]: 64 µg/mL
- MIC [28]: 32 µg/mL (≈ 62.5 µM)
- fractional inhibitory concentration index (FICI) [36]: 0.75
- MIC [29]: 128 µg/mL
- MIC [30]: 1 µg/mL (≈ 1.95 µM)
- fractional inhibitory concentration index (FICI) [37]: 0.75
- fractional inhibitory concentration index (FICI) [31]: 1.125
